Measured values reported in patent publication US4628043A, “Hypothalamic GRF agonists” (The Salk Institute for Biological Studies, priority 1985, dated 1986).
Square brackets hold non-standard residues; d marks the D form. Ends that are not written are not given here. Peptide text beside a SMILES is read from it. Nle = CCCC[C@H](N)C(=O)O

Legend:
[1] = system: cells of rat pituitary glands; assay: in vitro GH release assay in cultured rat pituitary cells, hpGRF(1-40)-OH as standard; assay type: cell-based; conditions: for Comparison %: GH release at equimolar concentrations relative to hpGRF(1-40)-OH standard (100%), incubation 3 to 4 hours, ir GH by radioimmunoassay
Experimental: To determine the effectiveness of the various synthetic peptides to promote the release of growth hormone, in vitro assays are carried out using synthetic hpGRF(1-40)--OH as a standard in side-by-side comparison with equimolar concentrations of the various other analogs and fragments synthesized. Cultures are used which include cells of rat pituitary glands removed some three to five days previously. Cultures which are considered optimal for the secretion of growth hormone are used for the comparative testing, in the general manner described in Vale et al. Endocrinology, 91, 562-572 (1972) and as more particularly described in Vale et al. Endocrinology, (1983), in press. Incubation with the substance to be tested is carried out for 3 to 4 hours, and aliquots of the culture medium are removed and processed to measure their contents in immunoreactive GH(ir GH) by a well-characterized radioimmunoassay.

[2] = system: freely running normal male rats; assay: in vivo GH secretion after injection through an indwelling catheter, FLA-63 pretreated rats; set-up: species or system rat; conditions: blood GH by radioimmunoassay prior to and 5 and 20 minutes after injection; result in words
Experimental: In addition to the in vitro tests for secretion of growth hormone, in vivo experiments are also run by injecting the synthetic peptide through an indwelling catheter into freely running normal male rats. Animals are pretreated with FLA-63, a dopamine hydroxylase inhibitor that suppresses spontaneous GH secretion without affecting the response to exogenous GRF. Blood samples are taken through the same catheter immediately prior to and 5 and 20 minutes after injections; GH levels in blood are measured by radioimmunoassay. […] Dosages between about 40 nanograms and about 25 micrograms per Kg. of body weight are considered to be effective in causing secretion.

Row | Molecule | Comparison % [1] | stimulation of the secretion of pituitary GH in vivo [2] | maximum effective concentration ([1]; in vitro GH secretion, cultured rat pituitary cells) | release of GH from cultured pituitary cells ([1]; result in words)
1 | npGRF(1-40)-OH: synthetic hpGRF(1-40)--OH used as a standard in the in vitro assays (YADAIFTNSYRKVLGQLSARKLLQDIMSRQQGESNQERGA-OH; UniProt P01286 32-71, looked up, fragment) [reference compound] | 100% | – | – | –
2 | CC[C@H](C)[C@H](NC(=O)[C@H](C)NC(=O)[C@H](CC(=O)O)NC(=O)[C@H](C)NC(=O)[C@@H](N)Cc1c[nH]cn1)C(=O)N[C@@H](Cc1ccccc1)C(=O)N[C@H](C(=O)N[C@@H](CO)C(=O)N[C@@H](CO)C(=O)N[C@@H](Cc1ccc(O)cc1)C(=O)N[C@@H](CCCNC(=N)N)C(=O)N[C@@H](CCCNC(=N)N)C(=O)N[C@H](C(=O)N[C@@H](CC(C)C)C(=O)NCC(=O)N[C@@H](CCC(N)=O)C(=O)N[C@@H](CC(C)C)C(=O)N[C@@H](Cc1ccc(O)cc1)C(=O)N[C@@H](C)C(=O)N[C@@H](CCCNC(=N)N)C(=O)N[C@@H](CCCCN)C(=O)N[C@@H](CC(C)C)C(=O)N[C@@H](CC(C)C)C(=O)N[C@@H](Cc1c[nH]cn1)C(=O)N[C@@H](CCC(=O)O)C(=O)N[C@H](C(=O)N[C@@H](CCSC)C(=O)N[C@@H](CC(N)=O)C(=O)N[C@@H](CCCNC(=N)N)C(=O)N[C@@H](CCC(N)=O)C(=O)N[C@@H](CCC(N)=O)C(=O)NCC(=O)N[C@@H](CCC(=O)O)C(=O)N[C@@H](CCCNC(=N)N)C(=O)N[C@@H](CC(N)=O)C(=O)N[C@@H](CCC(N)=O)C(=O)N[C@@H](CCC(=O)O)C(=O)N[C@@H](CCC(N)=O)C(=O)N[C@@H](CCCNC(=N)N)C(=O)N[C@@H](CO)C(=O)N[C@@H](CCCNC(=N)N)C(=O)N[C@@H](Cc1ccccc1)C(=O)N[C@@H](CC(N)=O)C(=O)O)[C@@H](C)CC)[C@@H](C)CC)[C@@H](C)O [rGRF(1-43)--OH, H--His--Ala--Asp--Ala--Ile--Phe--Thr--Ser--Ser--Tyr--Arg--Arg--Ile--Leu--Gly--Gln--Leu--Tyr--Ala--Arg--Lys--Leu--Leu--His--Glu--Ile--Met--Asn--Arg--Gln--Gln--Gly--Glu--Arg--Asn--Gln--Glu--Gln--Arg--Ser--Arg--Phe--Asn--OH] | – | powerful stimulators of the secretion of pituitary GH | 1 nM | releases GH from cultured pituitary cells
3 | CCCC[C@H](NC(=O)[C@@H](NC(=O)[C@H](CC(=O)O)NC(=O)[C@H](CCC(N)=O)NC(=O)[C@H](CC(C)C)NC(=O)[C@H](CC(C)C)NC(=O)[C@H](CCCCN)NC(=O)[C@H](CCCNC(=N)N)NC(=O)[C@H](C)NC(=O)[C@H](CO)NC(=O)[C@H](CC(C)C)NC(=O)[C@H](CCC(N)=O)NC(=O)CNC(=O)[C@H](CC(C)C)NC(=O)[C@@H](NC(=O)[C@H](CCCCN)NC(=O)[C@H](CCCNC(=N)N)NC(=O)[C@H](Cc1ccc(O)cc1)NC(=O)[C@H](CO)NC(=O)[C@H](CC(N)=O)NC(=O)[C@@H](NC(=O)[C@H](Cc1ccccc1)NC(=O)[C@@H](NC(=O)[C@H](C)NC(=O)[C@H](CC(=O)O)NC(=O)[C@H](C)NC(=O)[C@@H](N)Cc1ccc(O)cc1)[C@@H](C)CC)[C@@H](C)O)C(C)C)[C@@H](C)CC)C(=O)N[C@@H](CC(N)=O)C(=O)N[C@@H](CCCNC(=N)N)C(N)=O [[Nle^27,Asn^28]--hGRF(1-29)-NH2, H--Tyr--Ala--Asp--Ala--Ile--Phe--Thr--Asn--Ser--Tyr--Arg--Lys--Val--Leu--Gly--Gln--Leu--Ser--Ala--Arg--Lys--Leu--Leu--Gln--Asp--Ile--Nle--Asn--Arg--NH2] (H-YADAIFTNSYRKVLGQLSARKLLQDI[Nle]NR-NH2) | 520% | – | – | –
